According to paper PMC12765108, “Establishing selectivity of FAK-paxillin PPI inhibitor using pulldown proteomics and a focal adhesion protein selectivity panel” (Biochemistry and Biophysics Reports, 2025):
“Also recorded” adds a separate entry of the source.

Experiments:
FAK FAT (a.a. 892–1052) = molecular target: T1, FAK FAT (a.a. 892–1052) (Homo sapiens, UniProt Q05397); test: SPR direct binding; settings: 4.9 nM to […]
T1 construct: FAK FAT (a.a. 892–1052); 6X His (N); made in house; host or cells: E. coli BL21 DE3
T1 sequence (Q05397 892-1052): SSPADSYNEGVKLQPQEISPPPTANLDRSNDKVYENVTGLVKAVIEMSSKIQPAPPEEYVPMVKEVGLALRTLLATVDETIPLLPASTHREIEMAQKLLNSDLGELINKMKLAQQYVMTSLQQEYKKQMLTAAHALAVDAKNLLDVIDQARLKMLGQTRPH
Excerpt: (§1) Vinculin Tail (VinT) (a.a. 811–1066), Vinculin Head (VinH) (a.a. 1–258), Actopaxin, (PARVA complete protein), beta-parvin (PARVB, total protein), FAK FAT (a.a. 892–1052), and Talin-1 Rod 8 (a.a. 1453–1580) were purified in E. coli BL21 DE3 using 6X-Histag TOPO-100 plasmid constructs with AmpR gene (ThermoFisher). Purification procedures were as previously described. Proteins were purified using NiNTA affinity chromatography (ThermoFisher) followed by size-exclusion chromatography using the Akta Pump 900 system and HiLoad 26/600 SuperDex 75 pg column. Major peaks (Unicorn 3.0 software) were validated using SDS-PAGE stain free imaging (Biorad).
SPR was performed on a Sartorius Pioneer FE instrument as previously described. Briefly, biotinylated UA-1907 was immobilized onto Streptavidin Dextran Hydrogel (SADH) biosensor at a RU = 50. […] Equilibrium dissociation constant (KD) was calculated using Qdat software and 1:1 kinetic binding model.

[1] = tested on: FA selectivity panel (VinT, VinH, PARVA, PARVB, Talin-1 Rod 8, FAK FAT); test: SPR focal adhesion selectivity panel; format: binding
Excerpt: as §1
SPR was performed on a Sartorius Pioneer FE instrument as previously described. Briefly, biotinylated UA-1907 was immobilized onto Streptavidin Dextran Hydrogel (SADH) biosensor at a RU = 50. Proteins were flowed over at 75 μL/min in running buffer (50 mM Tris pH 8.0, 200 mM NaCl, 5 % glycerol) from 2.5 μM to 4.9 nM. Equilibrium dissociation constant (KD) was calculated using Qdat software and 1:1 kinetic binding model.

Paxillin = test: Pulldown (MS and WB), SK-MEL-147 lysate; format: binding
Description: 3000ug of SK-MEL-147 lysates were precleared in 60uL agarose beads for 1 h at 4C. […] Beads were washed with NP40 buffer without inhibitors and proteins were eluted using 63 mM Tris pH 6.8 and 5 % SDS. Elution proteins underwent trypsin digestion and were analyzed in nanoLC-MS/MS at the UA Biological Mass Spectroscopy Core using the Thermo Q Exactive Orbitrap mass spectrometer (MS) coupled to the Thermo Vanquish Neo nano-LC system. Peptide sequences were determined, correlated to SwissProt protein sequences, and normalized in Scaffold Proteomics Discoverer.
Protein Label Free Quantification (LFQ) was represented by Normalized Total Spectra. Fold Enrichment (FE) was calculated using Eq. (1): FE=(PulldownLFQ−EthanolamineControlBeadLFQ)/TotalLysateLFQ
Bead elutions were ran on a 4–20 % TGX Stain Free Gel and imaged via Stain Free Imaging (ChemDoc Biorad Imager) before transfer onto a PVDF membrane (TurboTransfer High MW). Blots were blocked using 5 % BSA in TBS-0.1 % Tween-20. Each primary antibody was used in 1:1000 dilution and incubated overnight at 4C. Blots were washed 3X and incubated in 1:5000 secondary antibody at RT for 1 h. Blots were incubated with ECL reagent (Biorad) for 5 min. Blots were imaged utilizing ChemDoc Biorad Imager for 3 min taking 60 total images. Results can be found in Supplementary Fig. 2.

FAK FAT domain = tested on: FAK FAT domain; set-up: method as in PMID 40021642; settings: ref [5]; cited from earlier work
FAK-paxillin interaction = settings: cellular and biochemical systems; ref [5]; cited from earlier work
[2] = ref [5]; cited from earlier work
Excerpt: (§2) The most significant finding in this manuscript is the nanomolar, highly specific affinity (Fig. 4g) between UA-1907 and the FAK FAT domain by SPR, but not […], PARVA, PARVB, VinH, and VinT. As previously discussed, the challenge of targeting FAK historically has been the off-target effects of ATP-competitive kinase inhibitors. […] The high selectivity of the FAT domain t ...

kinome = settings: ref [5]; cited from earlier work
Excerpt: as §2

| SMILES | binding (FAK FAT (a.a. 892–1052)) | binding selectivity across panel [1] | paxillin pulldown (Paxillin) | binding to FAK FAT domain (FAK FAT domain) | inhibition of FAK-paxillin interaction (FAK-paxillin interaction) | cellular toxicity [2] | kinome selectivity (kinome) |
| --- | --- | --- | --- | --- | --- | --- | --- |
| CC(=O)N[C@@H](CC(N)=O)C(=O)N[C@@H](CC(C)C)C(=O)N[C@]1(C)CCCCCC/C=C/CCC[C@@](C)(C(=O)N[C@@H](CCC(=O)O)C(=O)N[C@@H](CC(C)C)C(=O)N[C@@H](CC(N)=O)C(N)=O)NC(=O)[C@H](CC(C)C)NC(=O)[C@H](CC(C)C)NC(=O)[C@H](CCCNC(=N)N)NC(=O)[C@H](CC(=O)O)NC(=O)[C@H](CC(C)C)NC(=O)[C@H](CCC(=O)O)NC1=O [UA-1907] | bound to UA-1907 in a dose-dependent manner | only the FAK-FAT domain has a nanomolar binding affinity (KD) for UA-1907, whereas other FA proteins have no binding; also recorded: strong nanomolar binding affinity to the FAT domain of FAK, while minimal affinity to other FA proteins | paxillin did not pulldown with UA-1907 | binds the FAK FAT domain with high affinity | dose-dependently inhibits the FAK-paxillin interaction |  |  |
| CNC(=O)c1ccc(Nc2ncc(C(F)(F)F)c(NCc3nccnc3N(C)S(C)(=O)=O)n2)cc1 [defactinib] |  |  |  |  |  | high cellular toxicity | poor kinome selectivity |
